In ChEMBL document CHEMBL1131392, “3-Pyridyloxypropanolamine agonists of the beta 3 adrenergic receptor with improved pharmacokinetic properties” (Bioorg Med Chem Lett, 1998):

Legend:
[1] = Oral bioavailability in dog; type: ADME, organism-based, Canis lupus familiaris; conditions: in vivo
[2] = Compound was evaluated for half life (t1/2) upon intravenous administration of 1 mg/Kg in rats; type: ADME, organism-based; conditions: rat, in vivo
[3] = Plasma clearance upon intravenous administration of 1 mg/Kg in rats; type: ADME, organism-based; conditions: rat

Which bioavailability [1] does the source give for `O=S(=O)(Nc1ccc(CCNC[C@H](O)COc2ccc(O)cc2)cc1)c1cnc2ccccc2c1` here?
The bioavailability was 3%.

Which results are given for `O=S(=O)(Nc1ccc(CCNC[C@H](O)COc2ccc(O)cc2)cc1)c1ccccc1`?
half-life [2]: 25 min; clearance [3]: > 200 mL/min/kg

For `CCCCCCNC(=O)Nc1ccc(S(=O)(=O)Nc2ccc(CCNC[C@H](O)COc3ccc(O)cc3)cc2)cc1` [L-755507], which bioavailability [1] is on record?
Its bioavailability is less than 1%.
